From ChEMBL document CHEMBL4406883, “Synthesis and structure-activity relationships of novel camphecene analogues as anti-influenza agents” (Bioorg Med Chem Lett, 2019)
Activity calls are given as the source filed them. The rule behind the calls is not given here.

Tests used:
[1] = tested on: Influenza A virus (A/Puerto Rico/8/1934(H1N1)); format: functional, organism-based, pdm09
[2] = Cytotoxicity against dog MDCK cells assessed as cell death incubated for 48 hrs by MTT assay; format: cell-based, Canis lupus familiaris; settings: read-out: CTD50
[3] = in vitro; settings: dog, MDCK cells
Description: Selectivity index, ratio of CTD50 for dog MDCK cells to IC50 for Influenza A virus (A/Puerto Rico/8/34 (H1N1)) pdm09 infected in MDCK cells

[4] = tested on: Influenza A virus (A/Puerto Rico/8/1934(H1N1)); format: functional, organism-based; settings: pdm09, 300 umol/l
[5] = tested on: Influenza A virus (A/Puerto Rico/8/1934(H1N1)); format: functional, organism-based; settings: pdm09, 300 umol/l; remark: listed apart in the source
[6] = Influenza A virus, pdm09, MDCK, read-out: IC50

| SMILES | IC50 [1, 6] | CC50 at 48 h [2] | selectivity ratio [3] | IC50 [1] | inhibition [4] | inhibition [5] |
| --- | --- | --- | --- | --- | --- | --- |
| NC(=O)c1ncn([C@@H]2O[C@H](CO)[C@@H](O)[C@H]2O)n1 [RIBAVIRIN] | 25 µM | > 2000 µM | > 81 | – | – | – |
| CC1(C)[C@@H]2CC[C@@]1(C)/C(=N/CCO)C2 | 5000 µM | – | 500 | – | – | – |
| CC1(C)[C@@H]2CC[C@@]1(C)/C(=N/CCN1CCC(O)CC1)C2 | – | > 1030 µM | 1 | Not Active | – | – |
| CC1(C)[C@@H]2CC[C@@]1(C)/C(=N/CCSc1ncccn1)C2 | 6 µM | > 1020 µM | 183 | – | Active | inactive |
| NC12CC3CC(CC(C3)C1)C2 [AMANTADINE] | 64 µM | – | 4 | – | – | – |
| CC1(C)[C@@H]2CC[C@@]1(C)/C(=N/CCSc1nc3ccccc3s1)C2 | 19 µM | 383 µM | 20 | – | – | – |
| CC1CCN(CC/N=C2\C[C@H]3CC[C@]2(C)C3(C)C)CC1 | 25 µM | 294 µM | 12 | – | – | – |
| CCN1CCN(CC/N=C2\C[C@H]3CC[C@]2(C)C3(C)C)CC1 | 101 µM | 222 µM | 2 | – | – | – |
| CC1(C)[C@@H]2CC[C@@]1(C)/C(=N/CCN1CCNCC1)C2 | 37 µM | 1200 µM | 33 | – | – | – |
| CC1(C)[C@@H]2CC[C@@]1(C)/C(=N/CCSc1nc3ccccc3[nH]1)C2 | 21 µM | 406 µM | 20 | – | – | – |
| CC1(C)[C@@H]2CC[C@@]1(C)/C(=N/CCSc1nnc[nH]1)C2 | 24 µM | 197 µM | 8 | – | – | – |
| CC1(C)[C@@H]2CC[C@@]1(C)/C(=N/CCN1CCCC1)C2 | 12 µM | > 1260 µM | 106 | – | – | – |
| Cn1ccnc1SCC/N=C1\C[C@H]2CC[C@]1(C)C2(C)C | 341 µM | 1130 µM | 3 | – | – | – |
| CC(N)C12CC3CC(CC(C3)C1)C2 (stereo unspecified) [RIMANTADINE] | 67 µM | – | 5 | – | – | – |
| CC1(C)[C@@H]2CC[C@@]1(C)/C(=N/CCSc1ccc(Cl)cc1)C2 | 47 µM | 170 µM | 4 | – | – | – |
| CC1(C)[C@@H]2CC[C@@]1(C)/C(=N/CCN1CCCCC1)C2 | 27 µM | > 1140 µM | 43 | – | – | – |
| CC1(C)[C@@H]2CC[C@@]1(C)/C(=N/CCSc1ccccn1)C2 | 6 µM | 503 µM | 91 | – | – | – |
| CN1CCN(CC/N=C2\C[C@H]3CC[C@]2(C)C3(C)C)CC1 | 45 µM | 1080 µM | 24 | – | – | – |
| CC1(C)[C@@H]2CC[C@@]1(C)/C(=N/CCSC1=NCCS1)C2 | 33 µM | 753 µM | 23 | – | – | – |
